Experimental data taken from paper PMC8632988, “Inhibition of SYK and cSrc kinases can protect bone and cartilage in preclinical models of osteoarthritis and rheumatoid arthritis” (Scientific Reports, 2021).
“And” between values parts separate entries of the source, which are not always exact repeats. Equal values may be shown once. Read-outs that look alike come from different tables or passages of the source.

What was measured:
Experiment in all cases: Kinase selectivity profile assay
Format in all cases: biochemical
CHK2 = target: T1, CHK2 (Homo sapiens, UniProt O96017); conditions: 500 nM; relative to DMSO; read-out: Residual enzymatic activity
T1 construct: purchased Reaction Biology Corporation
T1 sequence (O96017 whole entry): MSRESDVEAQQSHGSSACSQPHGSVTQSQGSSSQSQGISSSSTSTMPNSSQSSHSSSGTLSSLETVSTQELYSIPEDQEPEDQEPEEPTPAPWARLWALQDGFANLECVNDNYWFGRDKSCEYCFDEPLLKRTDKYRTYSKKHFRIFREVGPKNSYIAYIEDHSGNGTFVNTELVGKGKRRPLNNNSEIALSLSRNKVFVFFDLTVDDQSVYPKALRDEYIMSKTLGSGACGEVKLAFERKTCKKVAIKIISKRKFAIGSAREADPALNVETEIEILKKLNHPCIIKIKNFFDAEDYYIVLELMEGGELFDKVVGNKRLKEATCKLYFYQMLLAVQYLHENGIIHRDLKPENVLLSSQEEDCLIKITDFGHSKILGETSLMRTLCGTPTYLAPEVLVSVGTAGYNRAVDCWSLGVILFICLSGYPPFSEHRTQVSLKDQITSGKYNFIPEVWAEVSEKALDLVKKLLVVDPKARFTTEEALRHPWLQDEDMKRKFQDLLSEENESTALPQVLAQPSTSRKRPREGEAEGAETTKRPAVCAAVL
Method in brief: (§1)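 Radiometric kinase assay run by a standard protocol. Unbound phosphate was removed by washing filters in phosphoric acid, and product radioactivity gave percent remaining kinase activity versus DMSO vehicle reactions. Run in duplicate.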

RSK3 = target: T2, RSK3 (Homo sapiens, UniProt Q15349); conditions: 500 nM; relative to DMSO; read-out: Residual enzymatic activity
T2 construct: purchased Reaction Biology Corporation
T2 sequence (Q15349 whole entry): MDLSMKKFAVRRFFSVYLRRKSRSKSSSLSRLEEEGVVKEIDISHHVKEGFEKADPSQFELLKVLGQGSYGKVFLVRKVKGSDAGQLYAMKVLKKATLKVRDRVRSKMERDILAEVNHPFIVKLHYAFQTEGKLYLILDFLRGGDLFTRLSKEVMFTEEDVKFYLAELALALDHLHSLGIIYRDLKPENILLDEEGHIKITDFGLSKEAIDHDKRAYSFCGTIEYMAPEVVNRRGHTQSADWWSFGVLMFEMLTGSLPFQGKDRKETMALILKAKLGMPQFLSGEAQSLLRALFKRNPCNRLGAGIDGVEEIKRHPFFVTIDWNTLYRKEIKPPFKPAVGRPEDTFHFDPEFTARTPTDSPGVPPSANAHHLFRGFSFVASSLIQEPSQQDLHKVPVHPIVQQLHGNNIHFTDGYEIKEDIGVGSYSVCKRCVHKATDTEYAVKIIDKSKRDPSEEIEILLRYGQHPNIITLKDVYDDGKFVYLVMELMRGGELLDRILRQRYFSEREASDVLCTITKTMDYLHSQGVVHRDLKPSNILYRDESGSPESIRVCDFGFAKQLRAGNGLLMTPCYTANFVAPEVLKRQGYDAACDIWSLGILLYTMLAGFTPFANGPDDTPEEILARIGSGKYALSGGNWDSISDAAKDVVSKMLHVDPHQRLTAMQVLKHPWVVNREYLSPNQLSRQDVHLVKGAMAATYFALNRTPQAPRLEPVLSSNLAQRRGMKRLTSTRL
Method in brief: as §1

EPHB1 = target: T3, EPHB1 (Homo sapiens, UniProt P54762); conditions: for remaining activity at 0.5 µM: 500 nM, relative to DMSO, read-out: Residual enzymatic activity
T3 construct: purchased Reaction Biology Corporation (assay service)
T3 sequence (P54762 18-984): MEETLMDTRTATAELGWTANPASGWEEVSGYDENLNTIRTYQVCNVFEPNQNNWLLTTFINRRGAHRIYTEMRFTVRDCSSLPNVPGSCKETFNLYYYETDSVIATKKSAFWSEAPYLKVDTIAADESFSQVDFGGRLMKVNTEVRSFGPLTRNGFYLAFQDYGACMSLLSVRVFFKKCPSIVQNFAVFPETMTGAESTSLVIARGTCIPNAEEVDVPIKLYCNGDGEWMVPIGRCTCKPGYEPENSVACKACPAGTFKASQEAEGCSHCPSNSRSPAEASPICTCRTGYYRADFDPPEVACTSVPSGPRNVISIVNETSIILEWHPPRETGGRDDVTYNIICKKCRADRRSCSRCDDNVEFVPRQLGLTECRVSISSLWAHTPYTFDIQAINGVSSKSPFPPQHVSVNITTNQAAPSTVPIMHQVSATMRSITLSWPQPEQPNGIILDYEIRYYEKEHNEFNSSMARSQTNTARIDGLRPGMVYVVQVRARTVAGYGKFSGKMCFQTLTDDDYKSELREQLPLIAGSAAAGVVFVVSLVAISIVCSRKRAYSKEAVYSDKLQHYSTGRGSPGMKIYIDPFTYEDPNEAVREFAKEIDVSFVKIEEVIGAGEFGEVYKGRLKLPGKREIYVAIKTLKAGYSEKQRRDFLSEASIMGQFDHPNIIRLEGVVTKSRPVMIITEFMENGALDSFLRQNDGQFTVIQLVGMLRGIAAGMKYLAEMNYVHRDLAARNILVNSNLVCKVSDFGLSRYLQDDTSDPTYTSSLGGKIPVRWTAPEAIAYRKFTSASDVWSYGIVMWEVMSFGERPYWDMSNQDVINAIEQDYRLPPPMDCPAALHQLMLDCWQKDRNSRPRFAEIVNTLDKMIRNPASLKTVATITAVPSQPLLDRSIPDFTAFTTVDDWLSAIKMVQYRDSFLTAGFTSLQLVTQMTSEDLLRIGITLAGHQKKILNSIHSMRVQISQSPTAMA
Method in brief: as §1

STK25/YSK1 = target: T4, STK25/YSK1 (Homo sapiens, UniProt O00506); conditions: 500 nM; relative to DMSO; read-out: Residual enzymatic activity
T4 construct: purchased Reaction Biology Corporation
Method in brief: as §1

PKCd = target: T5, PKCd (Homo sapiens, UniProt Q05655); conditions: 500 nM; relative to DMSO; read-out: Residual enzymatic activity
T5 construct: purchased Reaction Biology Corporation
T5 sequence (Q05655 whole entry): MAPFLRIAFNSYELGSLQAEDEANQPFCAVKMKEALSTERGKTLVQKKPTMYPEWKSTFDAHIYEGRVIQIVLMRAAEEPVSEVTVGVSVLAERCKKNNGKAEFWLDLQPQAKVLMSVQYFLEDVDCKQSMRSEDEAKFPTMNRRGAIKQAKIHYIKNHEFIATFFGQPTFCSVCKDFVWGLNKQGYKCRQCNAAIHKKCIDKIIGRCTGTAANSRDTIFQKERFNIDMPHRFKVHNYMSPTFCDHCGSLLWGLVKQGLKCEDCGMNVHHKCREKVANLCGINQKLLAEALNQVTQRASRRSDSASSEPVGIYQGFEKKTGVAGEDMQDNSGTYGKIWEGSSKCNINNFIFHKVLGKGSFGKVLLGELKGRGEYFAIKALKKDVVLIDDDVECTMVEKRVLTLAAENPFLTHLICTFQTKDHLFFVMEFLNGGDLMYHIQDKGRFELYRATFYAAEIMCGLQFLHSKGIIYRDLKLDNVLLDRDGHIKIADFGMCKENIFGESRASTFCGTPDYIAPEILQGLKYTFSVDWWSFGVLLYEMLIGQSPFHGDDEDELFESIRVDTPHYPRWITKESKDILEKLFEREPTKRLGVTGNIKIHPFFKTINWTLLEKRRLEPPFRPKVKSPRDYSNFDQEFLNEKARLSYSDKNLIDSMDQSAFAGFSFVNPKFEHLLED
Method in brief: as §1

MST4 = target: T6, MST4 (Homo sapiens, UniProt Q9P289); conditions: 500 nM; relative to DMSO; read-out: Residual enzymatic activity
T6 construct: purchased Reaction Biology Corporation
T6 sequence (Q9P289 whole entry): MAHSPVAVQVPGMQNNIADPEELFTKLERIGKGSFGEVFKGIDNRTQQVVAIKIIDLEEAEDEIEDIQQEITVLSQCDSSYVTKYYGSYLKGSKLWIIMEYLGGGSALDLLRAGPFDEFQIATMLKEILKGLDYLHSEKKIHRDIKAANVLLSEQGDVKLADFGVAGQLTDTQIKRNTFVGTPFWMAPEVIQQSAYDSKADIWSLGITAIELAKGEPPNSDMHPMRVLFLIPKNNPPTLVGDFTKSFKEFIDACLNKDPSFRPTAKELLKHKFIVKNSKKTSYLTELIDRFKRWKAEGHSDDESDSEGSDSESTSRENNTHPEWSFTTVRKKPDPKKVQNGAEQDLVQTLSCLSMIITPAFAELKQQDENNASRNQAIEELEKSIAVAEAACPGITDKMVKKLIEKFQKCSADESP
Method in brief: as §1

MRCKb/CDC42BPB = target: T7, MRCKb/CDC42BPB (Homo sapiens, UniProt Q9Y5S2); conditions: read-out: Residual enzymatic activity
T7 construct: purchased Reaction Biology Corporation
Method in brief: as §1

HPK1/MAP4K1 = target: T8, HPK1/MAP4K1 (Homo sapiens, UniProt Q92918); conditions: 500 nM; relative to DMSO; read-out: Residual enzymatic activity
T8 construct: purchased Reaction Biology Corporation
Method in brief: as §1

SLK/STK2 = target: T9, SLK/STK2 (Homo sapiens, UniProt Q9H2G2); conditions: 500 nM; relative to DMSO; read-out: Residual enzymatic activity
T9 construct: purchased Reaction Biology Corporation
T9 sequence (Q9H2G2 whole entry): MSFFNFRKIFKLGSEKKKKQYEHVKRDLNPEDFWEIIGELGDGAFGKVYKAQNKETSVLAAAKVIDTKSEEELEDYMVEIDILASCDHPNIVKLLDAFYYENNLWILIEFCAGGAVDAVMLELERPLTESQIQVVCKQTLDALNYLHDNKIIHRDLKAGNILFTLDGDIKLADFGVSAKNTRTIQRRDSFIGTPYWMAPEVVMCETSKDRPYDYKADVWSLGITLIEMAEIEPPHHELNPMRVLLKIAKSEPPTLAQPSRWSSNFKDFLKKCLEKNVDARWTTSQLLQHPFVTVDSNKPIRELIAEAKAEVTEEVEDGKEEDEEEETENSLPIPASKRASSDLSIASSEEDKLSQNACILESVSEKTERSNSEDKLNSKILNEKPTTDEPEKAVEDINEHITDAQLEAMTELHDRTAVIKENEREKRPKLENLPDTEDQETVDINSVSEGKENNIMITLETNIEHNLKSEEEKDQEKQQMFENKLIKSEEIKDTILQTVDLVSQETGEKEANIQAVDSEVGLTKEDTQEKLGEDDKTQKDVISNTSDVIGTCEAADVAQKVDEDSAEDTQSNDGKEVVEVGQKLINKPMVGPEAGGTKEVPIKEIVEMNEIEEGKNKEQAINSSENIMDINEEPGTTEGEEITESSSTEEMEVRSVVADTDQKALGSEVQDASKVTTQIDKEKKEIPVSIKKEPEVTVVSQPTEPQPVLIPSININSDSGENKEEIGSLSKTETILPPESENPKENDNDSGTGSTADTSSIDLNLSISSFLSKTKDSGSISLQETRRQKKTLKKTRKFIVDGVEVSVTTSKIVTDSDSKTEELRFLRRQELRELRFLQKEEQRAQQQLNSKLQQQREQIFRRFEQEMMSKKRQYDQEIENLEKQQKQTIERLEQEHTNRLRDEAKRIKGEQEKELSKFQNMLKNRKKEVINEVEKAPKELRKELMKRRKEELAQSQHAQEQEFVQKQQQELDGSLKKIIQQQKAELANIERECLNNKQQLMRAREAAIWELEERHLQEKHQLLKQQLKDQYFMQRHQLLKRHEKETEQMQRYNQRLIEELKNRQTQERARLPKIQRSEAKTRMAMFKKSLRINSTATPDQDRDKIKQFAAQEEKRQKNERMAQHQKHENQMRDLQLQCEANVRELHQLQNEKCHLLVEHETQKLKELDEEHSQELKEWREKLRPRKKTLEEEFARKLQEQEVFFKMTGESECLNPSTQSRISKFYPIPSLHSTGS
Method in brief: as §1

MEKK2 = target: T10, MEKK2 (Homo sapiens, UniProt Q9Y2U5); conditions: 500 nM; relative to DMSO; read-out: Residual enzymatic activity
T10 construct: purchased Reaction Biology Corporation
T10 sequence (Q9Y2U5 whole entry): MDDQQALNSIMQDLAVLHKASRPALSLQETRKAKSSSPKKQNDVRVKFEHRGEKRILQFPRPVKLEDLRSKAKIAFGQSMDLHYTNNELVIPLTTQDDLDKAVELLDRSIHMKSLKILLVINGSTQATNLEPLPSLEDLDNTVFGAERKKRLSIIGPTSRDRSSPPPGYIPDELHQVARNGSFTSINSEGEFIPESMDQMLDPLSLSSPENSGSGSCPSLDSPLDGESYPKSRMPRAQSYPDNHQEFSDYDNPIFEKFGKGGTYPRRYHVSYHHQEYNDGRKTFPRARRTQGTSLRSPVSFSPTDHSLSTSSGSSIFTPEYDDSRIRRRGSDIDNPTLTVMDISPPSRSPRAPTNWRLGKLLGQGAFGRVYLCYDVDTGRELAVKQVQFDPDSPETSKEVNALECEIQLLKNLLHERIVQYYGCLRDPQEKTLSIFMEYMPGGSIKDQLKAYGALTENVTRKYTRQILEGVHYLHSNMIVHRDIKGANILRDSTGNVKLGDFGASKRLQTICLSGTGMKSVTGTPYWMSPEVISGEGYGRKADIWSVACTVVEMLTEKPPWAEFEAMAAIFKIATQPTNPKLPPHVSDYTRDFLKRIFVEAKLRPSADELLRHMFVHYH
Method in brief: as §1

SRPK1 = target: T11, SRPK1 (Homo sapiens, UniProt Q96SB4); conditions: 500 nM; relative to DMSO; read-out: Residual enzymatic activity
T11 construct: purchased Reaction Biology Corporation
T11 sequence (Q96SB4 whole entry): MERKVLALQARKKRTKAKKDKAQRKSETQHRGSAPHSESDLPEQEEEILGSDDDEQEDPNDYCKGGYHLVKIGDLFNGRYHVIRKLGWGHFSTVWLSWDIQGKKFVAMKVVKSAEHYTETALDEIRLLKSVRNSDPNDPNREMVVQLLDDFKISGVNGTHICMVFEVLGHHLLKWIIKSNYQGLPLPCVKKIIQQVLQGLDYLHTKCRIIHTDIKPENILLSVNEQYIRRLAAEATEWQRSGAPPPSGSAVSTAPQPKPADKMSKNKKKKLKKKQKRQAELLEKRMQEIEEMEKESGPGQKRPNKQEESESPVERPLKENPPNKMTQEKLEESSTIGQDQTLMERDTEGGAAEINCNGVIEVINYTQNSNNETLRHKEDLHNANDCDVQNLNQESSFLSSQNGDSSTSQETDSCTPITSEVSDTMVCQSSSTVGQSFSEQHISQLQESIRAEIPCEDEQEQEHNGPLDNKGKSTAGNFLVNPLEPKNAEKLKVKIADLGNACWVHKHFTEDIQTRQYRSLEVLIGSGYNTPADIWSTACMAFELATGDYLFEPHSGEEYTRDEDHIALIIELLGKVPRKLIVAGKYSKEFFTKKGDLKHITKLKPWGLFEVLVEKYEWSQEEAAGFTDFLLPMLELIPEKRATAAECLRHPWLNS
Method in brief: as §1

TXK = target: T12, TXK (Homo sapiens, UniProt P42681); conditions: for remaining activity at 0.5 µM: 500 nM, relative to DMSO, read-out: Residual enzymatic activity
T12 construct: purchased Reaction Biology Corporation (Malvern, PA, USA)
T12 sequence (P42681 1-527): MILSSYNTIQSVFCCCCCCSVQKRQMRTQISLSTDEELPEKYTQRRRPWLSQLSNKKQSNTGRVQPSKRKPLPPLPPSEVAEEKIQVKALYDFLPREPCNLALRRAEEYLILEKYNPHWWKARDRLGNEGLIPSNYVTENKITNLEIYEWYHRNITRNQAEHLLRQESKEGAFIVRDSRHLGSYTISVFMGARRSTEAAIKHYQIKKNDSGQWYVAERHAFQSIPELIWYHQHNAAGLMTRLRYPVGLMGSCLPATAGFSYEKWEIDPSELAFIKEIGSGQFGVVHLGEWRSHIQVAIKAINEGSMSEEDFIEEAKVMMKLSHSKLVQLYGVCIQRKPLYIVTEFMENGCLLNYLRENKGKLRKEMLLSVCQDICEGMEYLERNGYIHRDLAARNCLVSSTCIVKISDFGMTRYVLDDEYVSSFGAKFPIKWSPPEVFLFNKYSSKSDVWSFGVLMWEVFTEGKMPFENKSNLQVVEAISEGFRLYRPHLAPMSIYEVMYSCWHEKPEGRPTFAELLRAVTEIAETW
Method in brief: as §1

[1] = 10-dose mode, threefold serial dilution from 10 μM

Structure (SMILES) | remaining activity at 0.5 µM (CHK2) | remaining activity at 0.5 µM (RSK3) | remaining activity at 0.5 µM (EPHB1) | IC50 (EPHB1; [1]) | remaining activity at 0.5 µM (STK25/YSK1) | remaining activity at 0.5 µM (PKCd) | remaining activity at 0.5 µM (MST4) | remaining activity at 0.5 µM (MRCKb/CDC42BPB; 500 nM, relative to DMSO) | remaining activity at 0.5 µM (HPK1/MAP4K1) | remaining activity at 0.5 µM (SLK/STK2) | remaining activity at 0.5 µM (MEKK2) | remaining activity at 0.5 µM (SRPK1) | remaining activity at 0.5 µM (TXK) | IC50 (TXK; [1]) | remaining activity at 0.5 µM (MRCKb/CDC42BPB)
COc1cc(Nc2ncnc(Nc3cc4c(cn3)NC(=O)C(C)(C)O4)n2)cc(OC)c1OC [MT-SYK-03] | 95% | 91.6% | 9.6% | 0.025 µM and 0.0247 µM | 105% | 110% | 112% | 103% | 107% | 81% | 106% | 108% | 35.4% | 0.222 µM | 
COc1cc(Nc2ncc(F)c(Nc3ccc4c(n3)NC(=O)C(C)(C)O4)n2)cc(OC)c1OC [R406, reference compound] | 50.7% | 52% | -4% |  | 90.7% | 97.7% | 94.8% |  | 98.8% | 31.4% | 56.8% | 101% | 16.3% |  | 105%
